Results taken from US6376671B1, “2-sulfamoylbenzoic acid derivatives” (Kaken Pharmaceutical Co., Ltd., priority 1997, dated 2002).

How the values were obtained:
LTD4 receptor = target: T1, LTD4 receptor (Cavia porcellus, UniProt Q2NNR5); test: LTD4 antagonistic effects: LTD4-induced constriction of isolated guinea pig ileum preparations; format: cell-based; details: LTD4 0.05-3.5 ng/ml cumulative, 5 min pre-treatment, Van Rossum's method
T1 construct: the ilea were excised and made into ileum preparations; from tissue; host or cells: guinea pig ileum
T1 sequence (Q2NNR5 1-340): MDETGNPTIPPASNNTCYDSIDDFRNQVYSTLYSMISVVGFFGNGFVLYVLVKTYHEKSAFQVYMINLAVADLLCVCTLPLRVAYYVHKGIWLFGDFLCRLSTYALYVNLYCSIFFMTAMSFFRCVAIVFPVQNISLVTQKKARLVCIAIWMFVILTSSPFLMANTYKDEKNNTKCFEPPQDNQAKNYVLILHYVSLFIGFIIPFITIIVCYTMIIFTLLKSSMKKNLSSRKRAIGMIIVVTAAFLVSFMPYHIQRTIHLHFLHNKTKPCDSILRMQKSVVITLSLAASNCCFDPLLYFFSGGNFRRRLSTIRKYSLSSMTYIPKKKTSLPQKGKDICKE
Protocol: (§1) Guinea pigs were bled to death, and the ilea were excised and made into ileum preparations. The ileum preparations were suspended with a 1 g load in Magnus tubes filled with 2 ml Tyrode solution maintained at 37° C. under aeration with a 95% O2-5% CO2 gas mixture, and LTD4-induced constrictions were isotonically recorded.
(§2) After equilibration of the tonuses of the ilea, constrictive responses to cumulative addition of 0.05-3.5 ng/ml LTD4 were observed. After the constrictive responses reached equilibrium, LTD4 was added again cumulatively 5 minutes after pre-treatment with a test substance to induce constriction. The pA2 values were calculated in accordance with Van Rossum's method.

TXA2 receptor = target: T2, TXA2 receptor (Cavia porcellus, UniProt A0A286Y4I8); test: TXA2 antagonistic effects: U-46619-induced constriction of isolated guinea pig tracheal muscle strips; format: cell-based; details: U-46619 cumulative, 5 min pre-treatment, Van Rossum's method
T2 construct: the tracheae were excised and made into tracheal muscle strips; from tissue; host or cells: guinea pig tracheal muscle strips
T2 sequence (A0A286Y4I8 1-347): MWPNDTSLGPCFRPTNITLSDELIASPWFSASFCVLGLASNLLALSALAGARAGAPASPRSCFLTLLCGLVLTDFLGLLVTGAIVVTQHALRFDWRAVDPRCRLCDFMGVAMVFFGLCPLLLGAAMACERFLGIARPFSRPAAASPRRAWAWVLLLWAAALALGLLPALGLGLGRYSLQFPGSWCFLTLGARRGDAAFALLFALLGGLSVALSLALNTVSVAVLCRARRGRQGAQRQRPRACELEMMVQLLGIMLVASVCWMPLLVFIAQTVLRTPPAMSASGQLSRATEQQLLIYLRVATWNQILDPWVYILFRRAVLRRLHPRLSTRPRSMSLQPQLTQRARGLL
Protocol: as §1, with “tracheae” for “ilea”, “tracheal muscle strips in accordance with Takagi et al.” for “ileum preparations.”, “strips” for “ileum preparations”, “U-46619-induced” for “LTD4-induced”
as §2, with “strips,” for “ilea,”, “10^−10−[…] U-46619” for “0.05-3.5 ng/ml LTD4”, “U-46619” for “LTD4”, “cumlatively” for “cumulatively”

[1] = tested on: passively sensitized guinea pigs; test: Antiasthmatic effects: immediate asthmatic response of passively sensitized guinea pigs (airway resistance); format: in vivo, guinea pig; details: 3 mg/kg i.v. 5 min before antigen inhalation (1% ovalbumin); airway resistance 5 min after inhalation
Protocol: The antiasthmatic effects were evaluated by the immediate asthmatic responses of passively sensitized guinea pigs. The previous day, the guinea pigs were sensitized by intravenous injections of a 10-fold diluted anti-DNP-ovalbumin guinea pig serum (guinea pig PCA titer; X1024) on the ears. The day of the test, after pre-treatment with pyrilamine (10 mg/kg i.p.), normal airway resitances were measured with a double flow plethysmograph in accordance with Pennock et al. The test substances (3 mg/kg) in DMSO were dissolved in 50% normal guinea pig serum-saline and intravenously injected from the ear vein 5 minutes before inhalation of the antigen. Immediate asthmatic responses were induced by 3 minutes of inhalational exposure to 1% ovalbumin in saline as the antigen from an ultrasonic neblizer, and the airway resistances were measured 5 minutes (4 to 6 minutes) after the inhalation. The results are expressed by the inhibition rates given by the following expression:
Inhibition rate (%)=(1−(A−B)/(C−D))×100
A: the airway resistance with a test substance after inhalation of the antigen,
B: the airway resistance with a test substance before inhalation of the antigen,
C: the airway resistance with a control after inhalation of the antigen,
D: the airway resistance with a control before inhalation of the antigen.

ICR mice = test: Acute toxicity test in ICR mice; format: in vivo, mouse

Row | SMILES | LTD4 inhibitory effect (pA2) (LTD4 receptor) | TXA2 inhibitory effect (pA2) (TXA2 receptor) | Antiasthmatic effect Inhibition rate (%) [1] | Acute toxicity (mortality), intravenous (ICR mice; intravenously 100 mg/kg) | Acute toxicity (mortality), oral (ICR mice; orally 1000 mg/kg) | Kb (LTD4 receptor; read-out: LTD4 inhibitory effect (pA2) (converted)) | Kb (TXA2 receptor; read-out: TXA2 inhibitory effect (pA2) (converted))
1 | CC(C)c1csc(COc2cccc(CN(CCCCNS(=O)(=O)c3ccc(Cl)cc3)S(=O)(=O)c3ccccc3C(=O)O)c2)n1 [compound 1, 2-{N-[4-(4-chlorobenzenesulfonylamino)butyl]-N-{3-[(4-isopropyl-2-thiazolyl)methoxy]benzyl}}sulfamoylbenzoic acid] | 9.73 | 8.30 | 53.5% | none of the mice died | none of the mice died | – | –
2 | CC(C)c1csc(COc2cccc(CN(CCCCNS(=O)(=O)c3ccc(Cl)cc3)S(=O)(=O)c3ccccc3-c3nnn[nH]3)c2)n1 [compound 91, 5-{2-{N-[4-(4-chlorobenzenesulfonylamino)butyl]-N-{3-[(4-isopropyl-2-thiazolyl)methoxy]benzyl}}sulfamoylphenyl}-1H-tetrazole] | – | – | – | – | – | 0.891 nM | 18.6 nM
